In patent publication US20140039044A1, “Hydroxylated Polymethoxyflavone Compositions” (WLLGEN, INC., priority 2006, published 2014):
Read-outs that look alike come from different tables or passages of the source.

Key:
Assay type in all cases: cell-based, human
[1] = system: AGS cells; test: Cell cycle distribution by flow cytometry; conditions: 24 h; for Cell Cycle Distribution G0/G1 / Cell Cycle Distribution G2/M / Cell Cycle Distribution S: Table 11
Description: (§1) The human cancer cells (2×10^5) were cultured in 60-mm Petri dishes and incubated for 24 h. After treated with test compounds for 24 h, the cells were then harvested, washed with PBS resuspended in 200 μL of PBS, and fixed in 800 μL of iced 100% ethanol at −20° C. After being left to stand overnight, the cell pellets were collected by centrifugation, resuspended in 1 mL of hypotonic buffer (0.5% Triton X-100 in PBS and 0.5 μg/mL RNase) and incubated at 37° C. for 30 min. Next, 1 mL of propidium iodide solution (50 μg/mL) was added, and the mixture was allowed to stand on ice for 30 min. Fluorescence emitted from the propidium iodide-DNA complex was quantitated after excitation of the fluorescent dye by FACScan cytometry (Becton Dickinson, San Jose, Calif.).
(§2) The effects of the hydrolyzed PMF-enriched compositions, nobiletin and 70% PMF OPE on cell cycle distribution were studied, following the procedures described in Section 8.4. Results for cell cycle distribution in HL-60 cells, COLO205 cells and AGS cells are provided in Table 5, Table 6 and Table 7, respectively. […] In HL-60 cells, G2/M arrest predominated in cells treated with 6N PMF concentrations ≧5 μM and with 1N PMF concentrations ≧25 μM.
(§3) Compounds A-K were evaluated in terms of their effects in arresting cell cycle progression by observing cell cycle phase distribution in cells treated with the compounds. Cells were treated with 5, 10, 25, 50, and 100 μM of one of compound A-K or DMSO (control) for 24 h and subjected to flow cytometric analysis after staining their DNA, as described above.
(§4) Similar cell cycle phase distribution studies were performed in AGS, COLO205, and HT-29 cells in response to individual PMFs, with results reported in Tables 11, 12 and 13, respectively.

[2] = system: COLO205 cells; test: Cell cycle distribution by flow cytometry; conditions: 24 h; for Cell Cycle Distribution G0/G1 / Cell Cycle Distribution G2/M / Cell Cycle Distribution S: COLO205 cells, Table 12
Description: as §1, §2, §3, §4

[3] = system: HT-29 cells; test: Cell cycle distribution by flow cytometry; conditions: for Cell Cycle Distribution G0/G1 / Cell Cycle Distribution G2/M / Cell Cycle Distribution S: 24 h; for Cell cycle arrest, in words: 5-100 μM, 24 h exposure
Description: as §1, §3, §4

[4] = system: AGS cells; test: Cell survival assay (antiproliferative IC50); conditions: AGS cells, read-out: Antiproliferative IC50
Description: (§5) Human colon carcinoma COLO205 and HT-29 cell lines (American Type Culture Collection (ATTC), Manassas, Va.) and the leukemia cell line HL-60 were maintained at 37° C. in 5% CO2 air in RPMI 1640 medium supplemented with 10% heat-inactivated fetal bovine serum (Gibco BRL, Grand Island, N.Y.), 100 units/mL penicillin, 100 μg/mL streptomycin and 2 mM 1-glutamine. The human gastric carcinoma AGS cell line (CCRC 60102), obtained from the Food Industry Research and Development Institute (Hsinchu, Taiwan), was maintained as described above, except that DMEM/F 12 was used as the medium rather than the RPMI 1640 medium. The human breast carcinoma MCF-7 cell line MCF-7 (ATTC) was cultured in RPMI 1640 medium supplemented with 5% fetal calf serum at 37° C. in a humidified atmosphere of 5% CO2 in air. The mouse macrophage cell line RAW 264.7 was maintained in RPMI 1640 supplemented with 100 U/ml penicillin, 100 μg/ml streptomycin, and 10% heat-inactivated fetal calf serum.
(§6) Cancer cells (2×10^5) were plated in 12-well Petri dishes. The next day, the medium was changed and treated with different concentration of the test compounds or compositions for 24 h. Where individual compounds were to be tested, stock solutions of the compound was prepared to contain 200 μM of the individual hydroxylated or non-hydroxylated PMF in dimethylsulfoxide (DMSO). Control cells were treated with DMSO to a final concentration of 0.05% (v/v). Depending on the objective of the particular experiment, cells were treating with test compound or composition for 1, 3 or 6 days. At the end of incubation, cells were harvested for cell count using a hemocytometer and measuring the cellular total nucleic acid content with the CyQUANT Cell Proliferation Assay Kit (Molecular Probes).
(§7) 1 N PMF and 6 N PMF compositions containing hydroxylated PMFs, prepared as described in Section 8.3 above, 70% PMF OPE and 5,6,7,8,3′,4′-hexamethoxyflavone (nobiletin) were tested for antiproliferative activity and apoptosis-inducing activity in HL-60, AGS and COLO205 cells as described in Section 8.4 above. Antiproliferative and apoptosis-inducing activities were derived as IC50 values and AC50, values, respectively, where AC50 is the concentration required for 50% apoptosis.
(§8) The PMF compounds were assayed in vitro for cell growth inhibition and for their ability to induce apoptosis in various human cancer cells, including HL-60, AGS, COLO 205, and HT-29 cells, using methods described in Section 8.4 above. Antiproliferative (IC50) and apoptosis-inducing activity (AC50) of PMFs in the HL-60, AGS, COLO 205, and HT-29 cells are reported in Table 9, where *P<0.05, **P<0.01 and ***P<0.001 indicate statistically significant differences from the control group.

[5] = system: COLO205 cells; test: Cell survival assay (antiproliferative IC50); conditions: COLO205 cells, read-out: Antiproliferative IC50
Description: as §5, §6, §7, §8

[6] = system: HL-60 cells; test: Cell survival assay (antiproliferative IC50); conditions: HL-60 cells, read-out: Antiproliferative IC50
Description: as §5, §6, §7, §8

COc1ccc(-c2oc3c(OC)c(OC)c(OC)c(OC)c3c(=O)c2OC)cc1OC [D, 3,5,6,7,8,3,4-heptamethoxyflavone, reference compound]
Cell Cycle Distribution G0/G1 ([1]; 5 μM): 37.6 ± 0.92
Cell Cycle Distribution G2/M ([1]; 5 μM): 0.4 ± 0.57
Cell Cycle Distribution S ([1]; 5 μM): 62.4 ± 0.85
Cell Cycle Distribution G0/G1 ([1]; 10 μM): 44.2 ± 0.14
Cell Cycle Distribution G2/M ([1]; 10 μM): 1.3 ± 0.42
Cell Cycle Distribution S ([1]; 10 μM): 55.2 ± 0.42
Cell Cycle Distribution G0/G1 ([1]; 25 μM): 46.6 ± 0.35
Cell Cycle Distribution G2/M ([1]; 25 μM): 4.7 ± 0.14
Cell Cycle Distribution S ([1]; 25 μM): 48.8 ± 0.42
Cell Cycle Distribution G0/G1 ([1]; 50 μM): 48.0 ± 0.14
Cell Cycle Distribution G2/M ([1]; 50 μM): 6.9 ± 0.42
Cell Cycle Distribution S ([1]; 50 μM): 45.7 ± 0.35
Cell Cycle Distribution G0/G1 ([1]; 100 μM): 63.2 ± 0.78
Cell Cycle Distribution G2/M ([1]; 100 μM): 4.0 ± 0.14
Cell Cycle Distribution S ([1]; 100 μM): 33.0 ± 0.49
Cell Cycle Distribution G0/G1 ([2]; 5 μM): 60.81 ± 0.62
Cell Cycle Distribution G2/M ([2]; 5 μM): 0.04 ± 0.05
Cell Cycle Distribution S ([2]; 5 μM): 39.16 ± 0.67
Cell Cycle Distribution G0/G1 ([2]; 10 μM): 60.58 ± 0.57
Cell Cycle Distribution G2/M ([2]; 10 μM): 0.40 ± 0.04
Cell Cycle Distribution S ([2]; 10 μM): 39.02 ± 0.61
Cell Cycle Distribution G0/G1 ([2]; 25 μM): 61.91 ± 0.35
Cell Cycle Distribution G2/M ([2]; 25 μM): 9.28 ± 0.59
Cell Cycle Distribution S ([2]; 25 μM): 28.82 ± 0.23
Cell Cycle Distribution G0/G1 ([2]; 50 μM): 68.87 ± 1.53
Cell Cycle Distribution G2/M ([2]; 50 μM): 6.10 ± 2.64
Cell Cycle Distribution S ([2]; 50 μM): 25.03 ± 1.12
Cell Cycle Distribution G0/G1 ([2]; 100 μM): 75.17 ± 0.05
Cell Cycle Distribution G2/M ([2]; 100 μM): 5.72 ± 0.64
Cell Cycle Distribution S ([2]; 100 μM): 19.12 ± 0.69
Cell Cycle Distribution G0/G1 ([3]; 5 μM): 67.79 ± 0.17
Cell Cycle Distribution G2/M ([3]; 5 μM): 7.56 ± 0.23
Cell Cycle Distribution S ([3]; 5 μM): 24.66 ± 0.06
Cell Cycle Distribution G0/G1 ([3]; 10 μM): 57.61 ± 0.69
Cell Cycle Distribution G2/M ([3]; 10 μM): 10.41 ± 0.45
Cell Cycle Distribution S ([3]; 10 μM): 30.98 ± 1.18
Cell Cycle Distribution G0/G1 ([3]; 25 μM): 76.11 ± 1.56
Cell Cycle Distribution G2/M ([3]; 25 μM): 9.04 ± 2.77
Cell Cycle Distribution S ([3]; 25 μM): 14.89 ± 1.21
Cell Cycle Distribution G0/G1 ([3]; 50 μM): 77.31 ± 2.82
Cell Cycle Distribution G2/M ([3]; 50 μM): 12.21 ± 0.74
Cell Cycle Distribution S ([3]; 50 μM): 20.49 ± 2.09
Cell Cycle Distribution G0/G1 ([3]; 100 μM): 80.66 ± 0.01
Cell Cycle Distribution G2/M ([3]; 100 μM): 3.79 ± 0.43
Cell Cycle Distribution S ([3]; 100 μM): 15.57 ± 0.43
Cell cycle arrest, in words [3]: significant accumulation of cells in G1 phase
IC50 [4]: > 100 µM
IC50 [5]: 62.5 ± 1.81 µM
IC50 [6]: 54.4 ± 0.9 µM

COc1ccc(-c2oc3c(OC)c(OC)c(OC)c(O)c3c(=O)c2OC)cc1OC [Compound C, 5-hydroxy-3,6,7,8,3′,4′-hexamethoxyflavone]
Cell Cycle Distribution G0/G1 ([1]; 5 μM): 45.5 ± 1.06
Cell Cycle Distribution G2/M ([1]; 5 μM): 9.9 ± 0.07
Cell Cycle Distribution S ([1]; 5 μM): 45.2 ± 0.35
Cell Cycle Distribution G0/G1 ([1]; 10 μM): 29.6 ± 1.77
Cell Cycle Distribution G2/M ([1]; 10 μM): 22.0 ± 0.78
Cell Cycle Distribution S ([1]; 10 μM): 26.1 ± 0.85
Cell Cycle Distribution G0/G1 ([1]; 25 μM): 20.6 ± 0.42
Cell Cycle Distribution G2/M ([1]; 25 μM): 47.3 ± 1.13
Cell Cycle Distribution S ([1]; 25 μM): 31.3 ± 0.49
Cell Cycle Distribution G0/G1 ([1]; 50 μM): 18.2 ± 0.42
Cell Cycle Distribution G2/M ([1]; 50 μM): 32.7 ± 0.57
Cell Cycle Distribution S ([1]; 50 μM): 50.1 ± 1.20
Cell Cycle Distribution G0/G1 ([1]; 100 μM): 17.0 ± 0.07
Cell Cycle Distribution G2/M ([1]; 100 μM): 32.4 ± 0.78
Cell Cycle Distribution S ([1]; 100 μM): 52.0 ± 0.85
Cell cycle arrest, in words ([1]; 5-100 μM): decrease in G1 arrest accompanied by an increase in G2/M phase cell population
Cell Cycle Distribution G0/G1 ([2]; 5 μM): 63.55 ± 0.99
Cell Cycle Distribution G2/M ([2]; 5 μM): 6.16 ± 0.37
Cell Cycle Distribution S ([2]; 5 μM): 30.29 ± 0.61
Cell Cycle Distribution G0/G1 ([2]; 10 μM): 75.57 ± 0.83
Cell Cycle Distribution G2/M ([2]; 10 μM): 6.37 ± 1.50
Cell Cycle Distribution S ([2]; 10 μM): 18.07 ± 0.67
Cell Cycle Distribution G0/G1 ([2]; 25 μM): 74.27 ± 0.83
Cell Cycle Distribution G2/M ([2]; 25 μM): 0.43 ± 0.20
Cell Cycle Distribution S ([2]; 25 μM): 25.30 ± 0.63
Cell Cycle Distribution G0/G1 ([2]; 50 μM): 58.30 ± 0.57
Cell Cycle Distribution G2/M ([2]; 50 μM): 16.70 ± 0.59
Cell Cycle Distribution S ([2]; 50 μM): 25.00 ± 1.16
Cell Cycle Distribution G0/G1 ([2]; 100 μM): 51.84 ± 0.31
Cell Cycle Distribution G2/M ([2]; 100 μM): 19.04 ± 0.39
Cell Cycle Distribution S ([2]; 100 μM): 29.13 ± 0.70
Cell cycle arrest, in words ([2]; COLO 205 cells, 5-100 μM): decrease in G1 arrest accompanied by an increase in G2/M phase cell population
Cell Cycle Distribution G0/G1 ([3]; 5 μM): 65.24 ± 0.32
Cell Cycle Distribution G2/M ([3]; 5 μM): 7.62 ± 0.11
Cell Cycle Distribution S ([3]; 5 μM): 27.15 ± 0.21
Cell Cycle Distribution G0/G1 ([3]; 10 μM): 69.14 ± 0.14
Cell Cycle Distribution G2/M ([3]; 10 μM): 6.58 ± 0.18
Cell Cycle Distribution S ([3]; 10 μM): 24.28 ± 0.32
Cell Cycle Distribution G0/G1 ([3]; 25 μM): 80.09 ± 0.19
Cell Cycle Distribution G2/M ([3]; 25 μM): 4.39 ± 0.37
Cell Cycle Distribution S ([3]; 25 μM): 15.54 ± 0.19
Cell Cycle Distribution G0/G1 ([3]; 50 μM): 69.85 ± 0.66
Cell Cycle Distribution G2/M ([3]; 50 μM): 5.91 ± 0.49
Cell Cycle Distribution S ([3]; 50 μM): 24.25 ± 1.15
Cell Cycle Distribution G0/G1 ([3]; 100 μM): 77.48 ± 0.74
Cell Cycle Distribution G2/M ([3]; 100 μM): 3.94 ± 1.32
Cell Cycle Distribution S ([3]; 100 μM): 18.59 ± 0.58
Cell cycle arrest, in words [3]: significant accumulation of cells in G1 phase
IC50 ([4]; Homo sapiens): 17 ± 0.21 µM
IC50 ([5]; Homo sapiens, COLO 205): 67 ± 1.4 µM
IC50 ([6]; Homo sapiens): 8.45 ± 1.6 µM
